Data taken from BindingDB's records for doi:10.7270/Q2TX3CTT (Broad Institute, 2010).
pEC50: −log10 of the molar value.

Target: Glycogen synthase kinase-3 beta (Homo sapiens, UniProt P49841)
Assay: concentration-response blocking of human GSK3B – biochemical, luminescence, cell-free homogeneous, retest, dose response (AID 434954)

Sequence of Glycogen synthase kinase-3 beta (P49841 whole entry): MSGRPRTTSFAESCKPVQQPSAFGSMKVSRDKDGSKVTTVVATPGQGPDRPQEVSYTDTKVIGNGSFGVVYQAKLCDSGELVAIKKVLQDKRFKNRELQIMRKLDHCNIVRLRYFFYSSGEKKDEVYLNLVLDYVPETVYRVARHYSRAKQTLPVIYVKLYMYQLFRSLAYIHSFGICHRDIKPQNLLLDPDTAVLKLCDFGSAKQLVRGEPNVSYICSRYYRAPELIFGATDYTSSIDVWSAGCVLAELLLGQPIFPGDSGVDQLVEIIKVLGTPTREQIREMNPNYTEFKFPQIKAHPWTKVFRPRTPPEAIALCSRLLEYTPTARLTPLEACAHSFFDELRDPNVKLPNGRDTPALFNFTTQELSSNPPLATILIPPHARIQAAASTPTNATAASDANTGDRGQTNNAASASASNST

SMILES | pEC50
Nc1nc(NCc2ccco2)nc(Nc2ccccc2)c1[N+](=O)[O-] [N-Furan-2-ylmethyl-5-nitro-N'-phenyl-pyrimidine-2,4,6-triamine] | < 3.52
O=C(OCc1ccc(COC(=O)c2ccc(O)cc2)cc1)c1ccc(O)cc1 [SMR000588531] | < 3.52
Cc1cccc(Nc2ccccc2C(=O)O)c1C | < 3.52
CCOc1ccccc1NC(=O)CSc1nnc(C2CC2)n1CC [2-[(5-cyclopropyl-4-ethyl-1,2,4-triazol-3-yl)thio]-N-(2-ethoxyphenyl)acetamide] | < 3.52
CC(=NNC(=S)Nc1c(C)cccc1C)c1cc2ccccc2o1 [SMR000260555] | < 3.52
CCN1CCN(CCNC(=O)c2ccc3c(c2)NC(=O)/C(=C\c2ccc(OC)c(OC)c2)S3)CC1 [(2E)-2-[(3,4-dimethoxyphenyl)methylidene]-N-[2-(4-ethylpiperazin-1-yl)ethyl]-3-oxidanylidene-4H-1,4-benzothiazine-6-carboxamide] | 4.79
N=C(NO)c1ccc(Oc2ccccc2Cl)c([N+](=O)[O-])c1 [4-(2-chlorophenoxy)-N'-hydroxy-3-nitrobenzenecarboximidamide] | < 3.52
CCOc1ccc(C(=O)NCC(=O)OCc2c(C)noc2C)cc1 [(3,5-dimethyl-1,2-oxazol-4-yl)methyl 2-[(4-ethoxybenzoyl)amino]acetate] | < 3.52
CC(C)CCSc1nnc(N)s1 [MLS000861787] | < 3.52
COc1cccc2c1cc1c(=O)n(CC(=O)NCCCN3CCCCC3)nc(C)n12 [2-(9-methoxy-4-methyl-1-oxo-[1,2,4]triazino[4,5-a]indol-2-yl)-N-[3-(1-piperidinyl)propyl]acetamide] | < 3.52
O=C(O)CCN1C(=O)/C(=C\c2ccc(-c3nc4ccccc4s3)o2)SC1=S [3-[(5E)-5-[[5-(1,3-benzothiazol-2-yl)-2-furanyl]methylidene]-4-oxo-2-sulfanylidene-3-thiazolidinyl]propanoic acid] | < 3.52
COC(=O)c1nnn(-c2nonc2N)c1CSCCO [1-(4-amino-1,2,5-oxadiazol-3-yl)-5-[(2-hydroxyethylthio)methyl]-4-triazolecarboxylic acid methyl ester] | 5.21
CN(Cc1nc2c(s1)CCCC2)C(=O)CCc1nnc(-c2ccc3c(c2)OCO3)o1 [SMR000318717] | 4.30
Cc1ccc(CC(=O)Nc2ncc([N+](=O)[O-])s2)cc1 [2-(4-methylphenyl)-N-(5-nitro-1,3-thiazol-2-yl)acetamide] | 4.54
COc1ccc(OC)c(C2Nc3ccccc3N=C3CC(C)(C)CC(=O)C32)c1 (stereo not given) [SMR000515998] | < 3.52
CC(C)OC(=O)c1nnn(-c2nonc2N)c1CSc1ccccn1 [1-(4-amino-1,2,5-oxadiazol-3-yl)-5-[(2-pyridinylthio)methyl]-4-triazolecarboxylic acid propan-2-yl ester] | 4.27
COc1cccc(Nc2ncc(C#N)c(N)n2)c1 [MLS000858965] | 4.84
COC(=O)Cc1ccc2sc(-c3ccccc3)nc2c1 [(2-Phenyl-benzothiazol-5-yl)-acetic acid methyl ester] | < 3.52
COc1ccc(-n2c(=O)c3c4c(sc3n3c(=S)[nH]nc23)CCC4)cc1 [1-Mercapto-4-(4-methoxy-phenyl)-7,8-dihydro-4H,6H-9-thia-2,3,4,9b-tetraaza-cyclopenta[b]-as-indace n-5-one] | 4.21
Cc1nc(Nc2ccccc2)sc1C(=O)c1ccccc1 [(2-anilino-4-methyl-1,3-thiazol-5-yl)(phenyl)methanone] | 4.70
Nc1nc(NCCO)nc(NCC2CCCO2)c1[N+](=O)[O-] (stereo not given) | 5.01
CC1CCN(C(=O)CSc2nc(N)c3c4c(sc3n2)CN(C)CC4)CC1 [2-[(4-azanyl-7-methyl-6,8-dihydro-5H-pyrido[4,5]thieno[1,2-c]pyrimidin-2-yl)sulfanyl]-1-(4-methylpiperidin-1-yl)ethanone] | < 3.52

SMILES | pEC50
CC(C)(C)NC(=O)NC(=O)COc1ccc(Br)cc1Br [SMR000254856] | < 3.52
Cc1cc(=O)[nH]c(N=NCc2ccc(-c3ccc([N+](=O)[O-])cc3)o2)n1 [SMR000589712] | < 3.52
Cc1ccc(CNc2nc(N)c([N+](=O)[O-])c(Nc3cccc(F)c3)n2)cc1 [SMR000148340] | < 3.52
N#Cc1c(-c2ccccc2)nc(SCC(=O)N(c2ccccc2)c2ccccc2)[nH]c1=O [2-[(5-cyano-6-oxo-4-phenyl-1,6-dihydro-2-pyrimidinyl)thio]-N,N-diphenylacetamide] | < 3.52
c1ccc2c(c1)OCC(CNCC1COc3ccccc3O1)O2 (stereo not given) [1-(2,3-dihydro-1,4-benzodioxin-3-yl)-N-(2,3-dihydro-1,4-benzodioxin-3-ylmethyl)methanamine] | < 3.52
CCCn1c(SCC(=O)N2CCCCC2)nnc1-c1ccccn1 [1-piperidin-1-yl-2-[(4-propyl-5-pyridin-2-yl-1,2,4-triazol-3-yl)sulfanyl]ethanone] | < 3.52
N#Cc1c(-c2ccc(F)cc2)nc(-c2ccccc2)[nH]c1=O | < 3.52
COc1ccc(OC)c(C(=O)c2coc3ccc(OC(C)=O)cc23)c1 [3-(2,5-dimethoxybenzoyl)-1-benzofuran-5-yl acetate] | < 3.52
CCOC(=O)C1C(C)=Nc2ncnn2C1c1ccccc1F (stereo not given) [ethyl 7-(2-fluorophenyl)-5-methyl-4,7-dihydro[1,2,4]triazolo[1,5-a]pyrimidine-6-carboxylate] | < 3.52
CCCCCCNC(=O)C(C(=O)OCC)C1CCCCC1 (stereo not given) [ethyl 2-cyclohexyl-3-(hexylamino)-3-oxidanylidene-propanoate] | < 3.52
O=C1N=C(S)SC1=Cc1ccc(N2CCOCC2)o1 | 5.07
CC(=O)Nc1cccc(Nc2nc(-c3ccccc3)nc3ccccc23)c1 [SMR000384461] | < 3.52
CCCCOC(=O)C1C(C)=Nc2ncnn2C1c1cccc(OC)c1OC (stereo not given) [butyl 7-(2,3-dimethoxyphenyl)-5-methyl-4,7-dihydro[1,2,4]triazolo[1,5-a]pyrimidine-6-carboxylate] | 5.37
O=c1cc(-c2ccc(O)cc2)oc2cc(O)cc(O)c12 [Naringenin, 18] | 4.31
CC1(C)CC(=O)C2C(=Nc3ccccc3NC2c2ccc(F)cc2)C1 (stereo not given) [SMR000515995] | < 3.52
Cc1nn(-c2ccccn2)c2c1C(c1ccncc1)C1C(=O)CC(C)(C)CC1=N2 (stereo not given) [SMR000152057] | < 3.52
O=C(O)c1ccccc1NCc1cccnc1 [SMR000473304] | < 3.52
COc1ccc(CCN(C)C(=O)c2ccc(S(=O)(=O)Nc3ccccc3C)cc2)cc1OC | < 3.52
Cc1cc(N2CCC(C)CC2)nc(-c2ccccc2O)n1 [(6E)-6-[6-methyl-4-(4-methyl-1-piperidinyl)-1H-pyrimidin-2-ylidene]-1-cyclohexa-2,4-dienone] | < 3.52
Cc1ccc(OCC(=O)N/N=C/c2ccc(O)cc2)c([N+](=O)[O-])c1 [2-(4-methyl-2-nitro-phenoxy)-N'-[(4-oxidanylidenecyclohexa-2,5-dien-1-ylidene)methyl]ethanehydrazide] | 5.14
CCn1c(SCc2ccccc2)nnc1-c1cccs1 | < 3.52
O=C(O)c1ccc(N=NCc2ccc(-c3cccc(Cl)c3)o2)cc1 [SMR000415894] | < 3.52

SMILES | pEC50
Cc1ccnc(NC(=O)c2ccc([N+](=O)[O-])s2)c1 [N-(4-methylpyridin-2-yl)-5-nitro-thiophene-2-carboxamide] | < 3.52
COc1cc(NC2=CC(=O)CC(C)(C)C2)cc(OC)c1OC [5,5-dimethyl-3-(3,4,5-trimethoxyanilino)-1-cyclohex-2-enone] | < 3.52
COC(=O)c1ccc(CSc2nnc(-c3ccncc3)o2)o1 [methyl 5-({[5-(4-pyridinyl)-1,3,4-oxadiazol-2-yl]thio}methyl)-2-furoate] | 4.90
CCOC(=O)C(CC)Sc1ncnc2nc[nH]c12 (stereo not given) | < 3.52
CCCCCCCCCCCCC(=O)CCCCC(=O)O [MLS001049131] | < 3.52
CC1(C)CC(=O)C=C(Nc2ccc3c(c2)OCCO3)C1 [3-(2,3-dihydro-1,4-benzodioxin-6-ylamino)-5,5-dimethyl-1-cyclohex-2-enone] | < 3.52
COc1ccc(-c2nn(-c3ccccc3)cc2N)cc1 [3-(4-methoxyphenyl)-1-phenylpyrazol-4-amine] | < 3.52
CC1=Nc2nnnn2C(c2sccc2C)C1C(N)=O (stereo not given) [MLS000528936] | < 3.52
COc1cc(/C=C2/C(=O)NN(c3cccc(Cl)c3)C2=O)cc(Br)c1O [MLS001210835] | 4.37
COc1ccc2nc(NC(=O)CSC3=NCCS3)sc2c1 [SMR000012424] | < 3.52
COC(=O)C1=CN(Cc2ccc(OC)c(OC)c2)C=C(C(=O)OC)C1c1ccccc1F [1-(3,4-Dimethoxy-benzyl)-4-(2-fluoro-phenyl)-1,4-dihydro-pyridine-3,5-dicarboxylic acid dimethyl ester] | < 3.52
CCOC(=O)c1ccc(NC(=O)CSc2nnc(C3CC3)n2CC)cc1 [MLS000121467] | < 3.52
CC1CCc2c(sc3nn[nH]c(=O)c23)C1 (stereo not given) [SMR000124179] | 4.41
O=C(O)CCn1cc(C=C2C(=O)NC(=S)NC2=O)c(-c2ccccc2)n1 [MLS000707577] | < 3.52
Cc1ccc(Cc2cnc(NC(=O)C3CCCO3)s2)cc1 (stereo not given) [SMR000141246] | 4.76
COc1cccc2c1cc1c(=O)n(CC(=O)NCc3ccccn3)nc(C)n12 [2-(9-methoxy-4-methyl-1-oxo-[1,2,4]triazino[4,5-a]indol-2-yl)-N-(pyridin-2-ylmethyl)acetamide] | < 3.52
c1ccc2c(Nc3nc(-c4ccncc4)nc4ccccc34)cccc2c1 [N-naphthalen-1-yl-2-pyridin-4-ylquinazolin-4-amine] | < 3.52
COc1ccc(Nc2nc(N)nc(CSc3nnc(C)s3)n2)cc1 [MLS000527270] | 4.09
CCCN(CCC)Cc1c(C(=O)NN=Cc2ccoc2)nnn1-c1nonc1N [1-(4-amino-1,2,5-oxadiazol-3-yl)-5-[(dipropylamino)methyl]-N-(3-furanylmethylideneamino)-4-triazolecarboxamide] | 5.07
O=C(COc1ccccc1Cl)Nc1ccc2c(c1)OCCO2 [2-(2-chloranylphenoxy)-N-(2,3-dihydro-1,4-benzodioxin-6-yl)ethanamide] | < 3.52
Cc1ccc(CNS(=O)(=O)c2c(C)[nH]c(=O)[nH]c2=O)cc1 [MLS001200136] | < 3.52
